# Measurements reported in paper PMC11995724, “Antibiotic target discovery by integrated phenotypic and activity-based profiling of electrophilic fragments” (Cell chemical biology, 2025).
# Assay: in vitro
# Conditions: human, hek293t cells
# Method: Mammalian cytotoxicity measurement was performed using Cell Titer-Glo 2.0 Cell Viability Assay (Promega, G9243) according to the manufacturer protocol. In brief, mammalian cells were seeded into 384-well white plates (Greiner, 781080) and incubated at 37°C for one day. Compounds from the Cys-Library were dispensed into the assay plate using epMotion 96. The plates were then incubated at 37°C for two days. An equal volume of Cell Titer-Glo 2.0 reagent was added into each well of the assay plate using epMotion 96 and incubated at 22°C for 10 min, followed by luminescence measurement using a Cytation 5 plate reader (BioTek).
row,Structure (SMILES),"viability at 48 h, 25 µM"
1,"CC(=O)Nc1ccc(C=C(C#N)C(=O)Nc2ccccc2Cl)cc1 [8-M11, N-(2-chlorophenyl)-2-cyano-3-(4-acetamidophenyl)prop-2-enamide]",86.4%
2,"N#CC(=Cc1csnn1)C(=O)Nc1ccc(Oc2ccccc2)cc1 [8-M12, 2-cyano-N-(4-phenoxyphenyl)-3-(1,2,3-thiadiazol-4-yl)prop-2-enamide]",43%
3,"CC(=O)Nc1ccc(C=C(C#N)C(=O)Nc2c(C)cc(C)cc2C)cc1 [8-M13, 2-cyano-3-(4-acetamidophenyl)-N-(2,4,6-trimethylphenyl)prop-2-enamide]",87.7%
4,"Cc1ccc(C=C(C#N)C(=O)Nc2cccc3ccccc23)cc1 [8-M14, 2-cyano-3-(4-methylphenyl)-N-(naphthalen-1-yl)prop-2-enamide]",121%
5,"CC(NC(=O)C(C#N)=Cc1ccc2c(c1)OCCO2)c1ccccc1 (centres unmarked) [8-M15, 2-cyano-3-(2,3-dihydro-1,4-benzodioxin-6-yl)-N-(1-phenylethyl)prop-2-enamide]",64.3%
6,"CC(=O)N(c1ccc(C)c(C)c1)c1nc(C=C(C#N)C(N)=O)cs1 [8-M16, 2-cyano-3-{2-[N-(3,4-dimethylphenyl)acetamido]-1,3-thiazol-4-yl}prop-2-enamide]",85.9%
7,"CC(C)Oc1ccccc1C=C(C#N)C(=O)Nc1ccccc1 [8-M17, 2-cyano-N-phenyl-3-[2-(propan-2-yloxy)phenyl]prop-2-enamide]",78.4%
8,"COc1ccc(NC(=O)C(C#N)=CC=Cc2ccccc2)cc1Cl [8-M18, N-(3-chloro-4-methoxyphenyl)-2-cyano-5-phenylpenta-2,4-dienamide]",75.7%
9,"COc1cc(C=C(C#N)C(=O)Nc2nccs2)cc(OC)c1O [8-M19, 2-cyano-3-(4-hydroxy-3,5-dimethoxyphenyl)-N-(1,3-thiazol-2-yl)prop-2-enamide]",86.3%
10,"CCc1ccc(NC(=O)C(C#N)=Cc2ccc(F)c(C#N)c2)cc1 [8-M20, 2-cyano-3-(3-cyano-4-fluorophenyl)-N-(4-ethylphenyl)prop-2-enamide]",23.7%
11,"Cc1cccc(C=C(C#N)C(=O)Nc2ccc(C(=O)O)cc2)c1 [8-M21, 4-[2-cyano-3-(3-methylphenyl)prop-2-enamido]benzoic acid]",91.6%
12,"N#CC(=Cc1ccc(Cl)cc1Cl)C(=O)Nc1ccncc1 [8-M22, 2-cyano-3-(2,4-dichlorophenyl)-N-(pyridin-4-yl)prop-2-enamide]",67%
13,"N#CC(=Cc1cccc(O)c1)C(=O)NCCc1ccccc1 [8-N03, 2-cyano-3-(3-hydroxyphenyl)-N-(2-phenylethyl)prop-2-enamide]",101%
14,"COc1ccc(NC(=O)C(C#N)=Cc2cccc(Cl)c2Cl)cc1 [8-N04, 2-cyano-3-(2,3-dichlorophenyl)-N-(4-methoxyphenyl)prop-2-enamide]",74.8%
15,"Cc1ccccc1NC(=O)C(C#N)=Cc1ccccc1Cl [8-N05, 3-(2-chlorophenyl)-2-cyano-N-(2-methylphenyl)prop-2-enamide]",47.9%
16,"COc1cc(C=C(C#N)C(=O)Nc2ccc3c(c2)OCCO3)ccc1O [8-N06, 2-cyano-N-(2,3-dihydro-1,4-benzodioxin-6-yl)-3-(4-hydroxy-3-methoxyphenyl)prop-2-enamide]",91.5%
17,"CCOc1ccc(NC(=O)C(C#N)=Cc2ccc(F)cc2)cc1 [8-N07, 2-cyano-N-(4-ethoxyphenyl)-3-(4-fluorophenyl)prop-2-enamide]",102%
18,"N#CC(=CC1=Cc2ccccc2OC1)C(=O)Nc1ccc(C(=O)O)cc1 [8-N08, 4-[3-(2H-chromen-3-yl)-2-cyanoprop-2-enamido]benzoic acid]",97.6%
19,"CNc1ccc(C=C(C#N)C(=O)Nc2ccccc2F)cc1[N+](=O)[O-] [8-N09, 2-cyano-N-(2-fluorophenyl)-3-[4-(methylamino)-3-nitrophenyl]prop-2-enamide]",110%
20,"CC(NC(=O)C(C#N)=Cc1cnn(C)c1)c1ccccc1 (centres unmarked) [8-N10, 2-cyano-3-(1-methyl-1H-pyrazol-4-yl)-N-(1-phenylethyl)prop-2-enamide]",97%
21,"CSc1ccc(C=C(C#N)C(=O)Nc2cccc(Cl)c2C)cc1 [8-N11, N-(3-chloro-2-methylphenyl)-2-cyano-3-[4-(methylsulfanyl)phenyl]prop-2-enamide]",103%
22,"N#CC(=Cc1c2ccccc2c(Cl)c2ccccc12)C(N)=O [8-N12, 3-(10-chloroanthracen-9-yl)-2-cyanoprop-2-enamide]",69.3%
23,"CCCCNC(=O)C(C#N)=Cc1cccc2ccccc12 [8-N13, N-butyl-2-cyano-3-(naphthalen-1-yl)prop-2-enamide]",112%
24,"COc1ccc(O)c(C=C(C#N)C(=O)Nc2cccc3ccccc23)c1 [8-N14, 2-cyano-3-(2-hydroxy-5-methoxyphenyl)-N-(naphthalen-1-yl)prop-2-enamide]",117%
25,"N#CC(=Cc1cccc2ccccc12)C(=O)NCc1ccco1 [8-N15, 2-cyano-N-[(furan-2-yl)methyl]-3-(naphthalen-1-yl)prop-2-enamide]",91%

row,Structure (SMILES),"viability at 48 h, 25 µM"
1,"CC(=O)Nc1ccc(C=C(C#N)C(=O)NC2CCCCC2)cc1 [8-N16, 2-cyano-N-cyclohexyl-3-(4-acetamidophenyl)prop-2-enamide]",95.6%
2,"N#CC(=Cc1ccncc1)C(=O)Nc1ccccc1Cl [8-N17, N-(2-chlorophenyl)-2-cyano-3-(pyridin-4-yl)prop-2-enamide]",112%
3,"N#CC(=Cc1cn(-c2ccccc2)nc1-c1ccccc1Cl)C(N)=O [8-N18, 3-[3-(2-chlorophenyl)-1-phenyl-1H-pyrazol-4-yl]-2-cyanoprop-2-enamide]",91.5%
4,"CCCn1c(C)cc(C=C(C#N)C(=O)Nc2cccc(C#N)c2)c1C [8-N19, 2-cyano-N-(3-cyanophenyl)-3-(2,5-dimethyl-1-propyl-1H-pyrrol-3-yl)prop-2-enamide]",107%
5,"CC(NC(=O)C(C#N)=Cc1ccccc1)C12CC3CC(CC(C3)C1)C2 (centres unmarked) [8-N20, N-[1-(adamantan-1-yl)ethyl]-2-cyano-3-phenylprop-2-enamide]",13.9%
6,"N#CC(=Cc1ccco1)C(=O)NC1CC1 [8-N21, 2-cyano-N-cyclopropyl-3-(furan-2-yl)prop-2-enamide]",112%
7,"COc1cc(C=C(C#N)C(=O)Nc2cccc(C)c2)c2c(c1)CC(C)O2 (centres unmarked) [8-N22, 2-cyano-3-(5-methoxy-2-methyl-2,3-dihydro-1-benzofuran-7-yl)-N-(3-methylphenyl)prop-2-enamide]",83.2%
8,"N#CC(=Cc1ccc(-c2ccc(Cl)cc2)o1)C(=O)Nc1ccccc1 [8-O03, 3-[5-(4-chlorophenyl)furan-2-yl]-2-cyano-N-phenylprop-2-enamide]",58.3%
9,"N#CC(=Cc1ccc(N2CCCCC2)cc1)C(=O)NC1CC1 [8-O04, 2-cyano-N-cyclopropyl-3-[4-(piperidin-1-yl)phenyl]prop-2-enamide]",82.3%
10,"N#CC(=Cc1ccc(O)c([N+](=O)[O-])c1)C(=O)NCc1ccccc1 [8-O05, N-benzyl-2-cyano-3-(4-hydroxy-3-nitrophenyl)prop-2-enamide]",98.7%
11,"CC(NC(=O)C(C#N)=Cc1cc(F)ccc1F)c1ccccc1 (centres unmarked) [8-O06, 2-cyano-3-(2,5-difluorophenyl)-N-(1-phenylethyl)prop-2-enamide]",25.3%
12,"C=CCNC(=O)C(C#N)=Cc1ccc(C#N)cc1 [8-O07, 2-cyano-3-(4-cyanophenyl)-N-(prop-2-en-1-yl)prop-2-enamide]",85.6%
13,"N#CC(=Cc1cc(F)ccc1F)C(=O)Nc1ccc(Cl)cc1Cl [8-O08, 2-cyano-N-(2,4-dichlorophenyl)-3-(2,5-difluorophenyl)prop-2-enamide]",68.1%
14,"CCNC(=O)C(C#N)=Cc1ccc(O)c(OCC)c1 [8-O09, 2-cyano-3-(3-ethoxy-4-hydroxyphenyl)-N-ethylprop-2-enamide]",98.9%
15,"CC(C)Oc1ccc(C=C(C#N)C(=O)NC2CCCC2)cc1 [8-O10, 2-cyano-N-cyclopentyl-3-[4-(propan-2-yloxy)phenyl]prop-2-enamide]",57.5%
16,"N#CC(=Cc1ccc([N+](=O)[O-])cc1)C(=O)Nc1ccc(Cl)cc1 [8-O11, N-(4-chlorophenyl)-2-cyano-3-(4-nitrophenyl)prop-2-enamide]",82.6%
17,"CC1CN(C(=O)C(C#N)=Cc2c(Cl)cccc2Cl)CC(C)O1 (centres unmarked) [8-O12, 3-(2,6-dichlorophenyl)-2-(2,6-dimethylmorpholine-4-carbonyl)prop-2-enenitrile]",60.2%
18,"COCCNC(=O)C(C#N)=Cc1c(Cl)cccc1Cl [8-O13, 2-cyano-3-(2,6-dichlorophenyl)-N-(2-methoxyethyl)prop-2-enamide]",55.9%
19,"COc1ccc(NC(=O)C(C#N)=Cc2cccs2)cc1 [8-O14, 2-cyano-N-(4-methoxyphenyl)-3-(thiophen-2-yl)prop-2-enamide]",75.7%
20,"N#CC(=Cc1c(F)c(F)c(F)c(F)c1F)C(=O)NC1CCCCC1 [8-O15, 2-cyano-N-cyclohexyl-3-(2,3,4,5,6-pentafluorophenyl)prop-2-enamide]",0.544%
21,"N#CC(=Cc1ccc(C#N)cc1)C(=O)Nc1cccc2ccccc12 [8-O16, 2-cyano-3-(4-cyanophenyl)-N-(naphthalen-1-yl)prop-2-enamide]",38.3%
22,"COc1cccc(NC(=O)C(C#N)=Cc2ccc(O)cc2)c1 [8-O17, 2-cyano-3-(4-hydroxyphenyl)-N-(3-methoxyphenyl)prop-2-enamide]",82.7%
23,"N#CC(=CC=Cc1ccccc1)C(=O)Nc1ccc(F)c(Cl)c1 [8-O18, N-(3-chloro-4-fluorophenyl)-2-cyano-5-phenylpenta-2,4-dienamide]",76.2%
24,"N#CC(=Cc1cccc2ccccc12)C(=O)NCc1ccccc1 [8-O19, N-benzyl-2-cyano-3-(naphthalen-1-yl)prop-2-enamide]",48%
25,"Cc1cccc(C)c1NC(=O)C(C#N)=Cc1c(C)n[nH]c1C [8-O20, 2-cyano-3-(3,5-dimethyl-1H-pyrazol-4-yl)-N-(2,6-dimethylphenyl)prop-2-enamide]",51.4%
